Measured values reported in US20190343908A1, “Therapeutic Combination for the Treatment of Cancer” (Nerium Biotechnology Inc., priority 2011, published 2019).

Tested on: HCT-116 (colorectal cancer)
Experiment: Methyl-Tetrazolium viability assay, HCT-116
Assay type: cell-based, human
Set-up: key: absorbance (optical density) at 570 nm, second wavelength subtracted
Details: for Average MTT: HCT-116
Description: Three different viability assays were chosen to complement each other and yielded results dependent on concentration and cell line: the Methyl Tetrazolium dye assay, the Sulforhodamine B fluorescent dye assay, and the Crystal Violet dye assay.
The Methyl-Tetrazolium dye assay measures the activity of enzymes in mitochondria. The dye precursor is taken up by cells, where it undergoes reduction to the purple formazan. It measures only the mitochondrial activity and, thus, it is not always a reliable indication of whether the cells themselves are alive or dead, since even a recently dead cell has […] enzyme activity in mitochondria. Intracellular glucose concentration, pH, and time before assay all affect the measurements.
The Methyl Tetrazolium, Sulforhodamine B, and Crystal Violet assays were used to assess cell viabilities. The incubation times were 24 hours, 48 hours, and 72 hours. The Nerium oleander extract Anvirzel™ (a hot water extract of oleander obtained from Salud Integral, Honduras) was tested in concentrations ranging from 0.01 ng/mL to 10 ng/mL.
Cells were detached by trypsinization (Trypsin-0.25% EDTA, Invitrogen, 25200-072) during the logarithmic phase of culture growth and plated in 96-well plates (18.000 cells/well) (Corning, Costar 359) in a final volume of 200 μl of medium per well. […] The absorbance was measured after 24 hours, 48 hours, and 72 hours of incubation.
For the Methyl-Tetrazolium assay, the dye (Sigma, M2128; 5 mg/mL, diluted in phosphate-buffered saline) was added to each well and plates were incubated for 3 hours at 37° C. After the end of the incubation period, the medium was discarded and the cells were rinsed with phosphate-buffered saline. Finally, the formazan crystals were dissolved in dimethylsulphoxide (Sigma, D4540).
The optical density of each plate was measured on a μQuant spectrophotometer and the data were analyzed with Gen5 software (μQuant Biomolecular Spectrophotometer MQX200 and Gen5™ Microplate Data Collection & Analysis software, BioTek® Instruments. Inc, April 2008). Absorbance was measured at 570 nm for all assays and a second wavelength was measured in order to subtract noise. For the Methyl-Tetrazolium assay this second wavelength was 630 nm and for the Sulforhodamine B and Crystal Violet assays it was 690 nm.

N.N.[Cl][Pt][Cl] [cisplatin]
MTT Average (HCT-116, Run 3, 24 h, 0.1 μg/ml CDDP): 0.16 | MTT Average (HCT-116, Run 3, 24 h, 1 μg/ml CDDP): 0.041 | MTT Average (HCT-116, Run 3, 24 h, 10 μg/ml CDDP): 0.09 | MTT Average (HCT-116, Run 3, 24 h, 100 μg/ml CDDP): 0.044 | MTT Average (HCT-116, Run 3, 48 h, 0.1 μg/ml CDDP): 0.302 | MTT Average (HCT-116, Run 3, 48 h, 1 μg/ml CDDP): 0.039 | MTT Average (HCT-116, Run 3, 48 h, 10 μg/ml CDDP): 0.108 | MTT Average (HCT-116, Run 3, 48 h, 100 μg/ml CDDP): 0.037 | MTT Average (HCT-116, Run 3, 72 h, 0.1 μg/ml CDDP): 0.385 | MTT Average (HCT-116, Run 3, 72 h, 1 μg/ml CDDP): 0.041 | MTT Average (HCT-116, Run 3, 72 h, 10 μg/ml CDDP): 0.147 | MTT Average (HCT-116, Run 3, 72 h, 100 μg/ml CDDP): 0.043 | Average MTT (Run 1, 24 h, 0.1 μg/ml CDDP): 0.215 | Average MTT (Run 1, 24 h, 1 μg/ml CDDP): 0.037 | Average MTT (Run 1, 24 h, 10 μg/ml CDDP): 0.072 | Average MTT (Run 1, 24 h, 100 μg/ml CDDP): 0.038 | Average MTT (Run 1, 48 h, 0.1 μg/ml CDDP): 0.184 | Average MTT (Run 1, 48 h, 1 μg/ml CDDP): 0.027 | Average MTT (Run 1, 48 h, 10 μg/ml CDDP): 0.054 | Average MTT (Run 1, 48 h, 100 μg/ml CDDP): 0.031 | Average MTT (Run 1, 72 h, 0.1 μg/ml CDDP): 0.332 | Average MTT (Run 1, 72 h, 1 μg/ml CDDP): 0.03 | Average MTT (Run 1, 72 h, 10 μg/ml CDDP): 0.033 | Average MTT (Run 1, 72 h, 100 μg/ml CDDP): 0.031 | Average MTT (Run 2, 24 h, 0.1 μg/ml CDDP): 0.111 | Average MTT (Run 2, 24 h, 1 μg/ml CDDP): 0.053 | Average MTT (Run 2, 24 h, 10 μg/ml CDDP): 0.081 | Average MTT (Run 2, 24 h, 100 μg/ml CDDP): 0.072 | Average MTT (Run 2, 48 h, 0.1 μg/ml CDDP): 0.179 | Average MTT (Run 2, 48 h, 1 μg/ml CDDP): 0.044 | Average MTT (Run 2, 48 h, 10 μg/ml CDDP): 0.045 | Average MTT (Run 2, 48 h, 100 μg/ml CDDP): 0.04 | Average MTT (Run 2, 72 h, 0.1 μg/ml CDDP): 0.296 | Average MTT (Run 2, 72 h, 1 μg/ml CDDP): 0.054 | Average MTT (Run 2, 72 h, 10 μg/ml CDDP): 0.045 | Average MTT (Run 2, 72 h, 100 μg/ml CDDP): 0.037
